The source of these data is patent US20050143392A1, “Chrysogenazine obtained from fungus Penicillium chrysogenum having antibacterial activity” (Council of Scientific & Industrial Research, priority 2003, published 2005).

The test system of this assay is Vibrio cholerae MCM B-322. Briefly: Antibacterial activity, simple disc diffusion (agar diffusion) technique. A general note: Agar diffusion results depend on both activity and mobility in agar.

Procedure: In addition, standard discs of penicillin (10 units/disc), amphicillin (10 mcg/disc) and streptomycin (10 mcg/disc) were used to compare the sensitivity.
Antibacterial activity was determined using a Gram negative bacterial strain, Vibrio cholerae, in a agar diffusion assay, essentially as described by Chabbert, (1963) and Rinehart et.al.,(1981). […] Following an appropriate incubation interval, microbial growth inhibition was visualized and quantified by measuring the clear zone around each disc (Plate 1.). Comparison of this was made with the standard antibiotics (penicillin, amphicillin, and streptomycin).

Turning to `[H]/N=C(/N)N[C@H]1[C@H](O)[C@@H](O)[C@H](O[C@@H]2O[C@@H](C)[C@](O)(C=O)[C@H]2O[C@@H]2O[C@@H](CO)[C@H](O)[C@@H](O)[C@@H]2NC)[C@@H](N/C(N)=N\[H])[C@@H]1O` [streptomycin], the zone of inhibition at 10 µg/disc (Vibrio cholerae, MCMB322) was 4 to 5 mm.

As to `CC(C)=CCc1[nH]c2ccccc2c1C=C1NC(=O)C(C)NC1=O` (centres unmarked) [chrysogenazine, 3,1′-didehydro-3[2″(3′″,3′″-dimethyl-prop-2-enyl)-3″-indolylmethylene]-6-methylpiperazine-2,5-dione], the “antibacterial activity against human pathogen Vibrio cholerae (in words)” value (disc diffusion, 5-30 mcg/disc) is recorded as “active”.

The zone of inhibition is the size of the clear area around the sample on an inoculated plate. Low readings indicate a weaker effect on the plate, high ones a stronger effect on the plate.
